This is an account of results in patent EP3381898A1, “SYMMETRICAL TRIS-ARYL-AMIDE DERIVATIVES AND THEIR USE AS ANTI-HEPARANASE” (priority 2017, dated 2018).

Where a name gives a salt, the structure may show the parent alone. Read-outs that look alike come from different tables or passages of the source.

One assay concerns the target T1, heparanase (Homo sapiens, UniProt Q9Y251).
T1 sequence (Q9Y251 158-543 limits assumed): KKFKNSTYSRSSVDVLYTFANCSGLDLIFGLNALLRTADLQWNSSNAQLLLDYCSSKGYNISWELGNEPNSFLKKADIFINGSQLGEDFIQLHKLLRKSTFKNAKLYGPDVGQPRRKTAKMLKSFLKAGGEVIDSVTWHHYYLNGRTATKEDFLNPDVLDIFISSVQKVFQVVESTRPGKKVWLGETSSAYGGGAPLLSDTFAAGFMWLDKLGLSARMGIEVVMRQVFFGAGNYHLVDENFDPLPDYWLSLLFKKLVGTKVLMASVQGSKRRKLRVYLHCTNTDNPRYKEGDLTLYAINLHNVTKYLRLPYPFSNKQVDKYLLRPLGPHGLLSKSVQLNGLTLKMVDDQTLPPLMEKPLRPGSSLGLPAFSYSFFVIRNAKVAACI
T1 sequence (Q9Y251 36-109 limits assumed): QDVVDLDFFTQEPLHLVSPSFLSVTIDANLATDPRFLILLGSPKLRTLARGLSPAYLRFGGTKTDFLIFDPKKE
Briefly: AGA*IA assay: heparanase-catalyzed fondaparinux cleavage, colorimetric (WST-1). The class given is biochemical. The procedure: All compounds were tested in a simple, accurate and robust microplate assay based on the cleavage of the synthetic heparin fragment, the pentasaccharide Fondaparinux (AGA*IA). This assay was originally developed by Hammond and coworkers (Hammond E, Li CP, Ferro V. Development of a colorimetric assay for heparanase activity suitable for kinetic analysis and inhibitor screening. Anal. Biochem. 396(1), 112-116 (2010)), where Fondaparinux corresponds to the methyl glycoside of the antithrombin III (ATIII)-activating pentasaccharide sequence of heparin. Fondaparinux is cleaved by heparanase to generate a reducing disaccharide, which can be quantitatively measured via a colorimetric or a fluorescence assay, the last by the fluorescent sensor polymer-H [Schiemann S, Lühn S, Alban S. Development of both colorimetric and fluorescence heparinase activity assays using fondaparinux as substrate. Anal. Biochem. 427(1), 82-89 (2012)].
The assay measures the appearance of the disaccharide product of heparanase-catalyzed fondaparinux cleavage colorimetrically using the tetrazolium salt WST-1. Assay was essentially performed as described with minor modifications. Briefly, NUNC ELISA 96-well plates were pre-treated with a solution of 4% BSA (bovin serum albumin) in phosphate-buffered saline containing 0.05% Tween 20 (PBST), for 2 h at 37°C, then washed three times with PBST, dried by tapping on paper towel and stored at -20°C. Before use, once again, the plates were washed with PBST.
Assay was carried out with 100 µl/well of assay solution containing 40 mM sodium acetate buffer (pH 5.0), 100 µM fondaparinux, 2.5 nM heparanase and serial dilutions of test compounds (tested in triplicate). Plates were sealed with adhesive tape and incubated, in the dark, for 3 h at 37°C, followed by development with 1.69 mM of the tetrazolium salt WST-1 solution in 0.1 M NaOH, for 1 h at 60°C. Then, the absorbance at 560 nm was measured through a microplate reader (Victor 3, Perkin Elmer).
Finally, the measurements were corrected by subtracting both the reagent background and the inner absorbance value of test compound.
In general terms: Formazan colour is commonly taken as a measure of viable cells.

Assay [1] concerns HT1080 (human fibrosarcoma). The experiment in a line: SRB Cell Cytotoxicity Assay (cell proliferation, 72h). Format: cell-based. The settings on record: HT-1080, 72 h, read-out: Concentration (µM) of test compounds at which the cell growth is inhibited by 50 %. HT1080. As for the experimental part: (§1) SRB Cell Cytotoxicity Assay is an assay based upon the quantitative staining of cellular proteins by sulforhodamine B (SRB). This assay can be used for high-throughput drug screening ([…], Nature Protocol. 2006, 1, 112). Sulforhodamine B is an anionic aminoxanthene dye that forms an electrostatic complex with the basic amino acid residues of proteins under moderately acid conditions, which provides a sensitive linear response. […] Inhibition of cell proliferation was then measured by the classical colorimetric SRB Cell Cytotoxicity assay. Absorbance was measured by spectrophotometer at a wavelength of 510 nm and cell proliferation was determined as percent with respect to control cells (cells treated with the vehicle alone). EC50 values were then determined by GraphPad Prism.

In assay [2] the test system is U2OS (human osteosarcoma). The assay is described as above. Format: cell-based. The settings on record: 72 h, read-out: Concentration (µM) of test compounds at which the cell growth is inhibited by 50 %. U2OS. As for the experimental part:
as §1

Assay [3] deals with U87MG (human glioblastoma astrocytoma). Described as above. The class given is cell-based. Particulars: U-87 MG, 72 h, read-out: Concentration (µM) of test compounds at which the cell growth is inhibited by 50 %. U87MG. The procedure:
as §1

The mark [4] stands for this setting: Table 1, range activity classes, AGA*IA test on Fondaparinux, read-out: AGAIA assay IC50.
[5] abbreviates: Table 2, classes as in Table 1, read-out: AGA*IA assay.

Consider `Cn1cc(NC(=O)Nc2cc(C(=O)Nc3cc(C(=O)Nc4cccc(CC(=O)O)c4)n(C)c3)n(C)c2)cc1C(=O)Nc1cc(C(=O)Nc2cccc(CC(=O)O)c2)n(C)c1` [Compound 17h, 2,2'-{carbonylbis[imino(1-methyl-1H-pyrrole-4,2-diyl)carbonylimino(1-methyl-1H-pyrrole-4,2-diyl)carbonylimino-3,1-phenylene]}diacetic acid], for which the IC50 on heparanase (setting [4]) and at heparanase (setting [5]) was 500 to 990 nM throughout. In addition, the EC50 in assay [1], in assay [2] and in assay [3] was above 2.5 µM in each case.
Turning to `Cn1cc(NC(=O)c2cccc(NC(=O)Nc3cccc(C(=O)Nc4cc(C(=O)Nc5cccc(CC(=O)O)c5)n(C)c4)c3)c2)cc1C(=O)Nc1cccc(CC(=O)O)c1` [Compound 12h, 2,2'-(((4,4'-((3,3'-(Carbonylbis(azanediyl))bis(benzoyl))bis(azanediyl))bis(1-methyl-1H-pyrrole-4,2-diyl-2-carbonyl))bis(azanediyl))bis(3,1-phenylene))diacetic acid], the IC50 at heparanase (setting [4]) is 1000 to 20000 nM.
As to `C[C@H](NC(=O)Cc1cccc(NC(=O)c2cc(NC(=O)c3cc(NC(=O)Nc4cc(C(=O)Nc5cc(C(=O)Nc6cccc(CC(=O)N[C@@H](C)C(=O)O)c6)n(C)c5)n(C)c4)cn3C)cn2C)c1)C(=O)O` [Compound 17d, 2,2'-{carbonylbis[imino(1-methyl-1H-pyrrole-4,2-diyl)carbonylimino(1-methyl-1H-pyrrole-4,2-diyl)carbonylimino-3,1-phenylene(1-oxoethane-2,1-diyl)imino]}dipropanoic acid], the IC50 at heparanase (setting [4]) lay within 1000 to 20000 nM.
As for `Cn1cc(NC(=O)c2cccc(NC(=O)Nc3cccc(C(=O)Nc4cc(C(=O)Nc5cccc(CC(=O)N[C@@H](Cc6ccccc6)C(=O)O)c5)n(C)c4)c3)c2)cc1C(=O)Nc1cccc(CC(=O)N[C@@H](Cc2ccccc2)C(=O)O)c1` [Compound 12e, 2,2'-{carbonylbis[imino-3,1-phenylenecarbonylimino(1-methyl-1H-pyrrole-4,2-diyl)carbonylimino-3,1-phenylene(1-oxoethane-2,1-diyl)imino]}bis(3-phenylpropanoic acid)], the IC50 is below 500 nM on heparanase (AGA*IA screening, read-out: anti-heparanase activity); 50 to 490 nM at heparanase (setting [4]); 50 to 490 nM on heparanase (setting [5]). The EC50 in assay [1], in assay [2] and in assay [3] was above 2.5 µM throughout.
Turning to `CC(C)CC(NC(=O)Cc1cccc(NC(=O)c2cc(NC(=O)c3cccc(NC(=O)Nc4cccc(C(=O)Nc5cc(C(=O)Nc6cccc(CC(=O)NC(CC(C)C)C(=O)O)c6)n(C)c5)c4)c3)cn2C)c1)C(=O)O` (stereo not drawn) [Compound 12a, 2,2'-{carbonylbis[imino-3,1-phenylenecarbonylimino(1-methyl-1H-pyrrole-4,2-diyl)carbonylimino-3,1-phenylene(1-oxoethane-2,1-diyl)imino]}bis(4-methylpentanoic acid)], the IC50 on heparanase (setting [4]) was in the range of 1000 to 20000 nM.
For the compound `Cn1cc(NC(=O)Nc2cc(C(=O)Nc3cc(C(=O)Nc4cccc(CC(=O)N[C@@H](CCCCN)C(=O)O)c4)n(C)c3)n(C)c2)cc1C(=O)Nc1cc(C(=O)Nc2cccc(CC(=O)N[C@@H](CCCCN)C(=O)O)c2)n(C)c1` [Compound 35c, (2S,2'S)-2,2'-((2,2'-(((4,4'-((4,4'-(carbonylbis(azanediyl))bis(1-methyl-1H-pyrrole-4,2-diyl-2-carbonyl))bis(azanediyl))bis(1-methyl-1H-pyrrole-4,2-diyl-2-carbonyl))bis(azanediyl))bis(3,1-phenylene))bis(acetyl))bis(azanediyl))bis(6-aminohexanoic acid) dihydrochloride], the IC50 on heparanase (setting [4]) fell in the range of 1000 to 20000 nM.
Still for that read-out and setting: the figure for `C[C@H](NC(=O)Cc1cccc(NC(=O)c2cc(NC(=O)c3ccc(Oc4ccc(C(=O)Nc5cc(C(=O)Nc6cccc(CC(=O)N[C@@H](C)C(=O)O)c6)n(C)c5)cc4)cc3)cn2C)c1)C(=O)O` [Compound 36d, (2S,2'S)-2,2'-((2,2'-(((4,4'-((4,4'-Oxybis(benzoyl))bis(azanediyl))bis(1-methyl-1H-pyrrole-2,2'-carbonyl))bis(azanediyl))bis(3,1-phenylene))bis(acetyl))bis(azanediyl))dipropanoic acid] is 1000 to 20000 nM; for `Cn1cc(NC(=O)c2cccc(NC(=O)Nc3cccc(C(=O)Nc4cc(C(=O)Nc5cccc(CC(=O)NCC(=O)NCC(=O)O)c5)n(C)c4)c3)c2)cc1C(=O)Nc1cccc(CC(=O)NCC(=O)NCC(=O)O)c1` [Compound 13b, Disodium 2,2'-{carbonylbis[imino-3,1-phenylenecarbonylimino(1-methyl-1H-pyrrole-4,2-diyl)carbonylimino-3,1-phenylene(1-oxoethane-2,1-diyl)imino(1-oxoethane-2,1-diyl)imino]}diethanoate salt] it is 1000 to 20000 nM; for `Cn1cc(NC(=O)c2cccc(NC(=O)Nc3cccc(C(=O)Nc4cc(C(=O)Nc5ccc(CC(=O)O)cc5)n(C)c4)c3)c2)cc1C(=O)Nc1ccc(CC(=O)O)cc1` [Compound 12j, 2,2'-(((4,4'-((3,3'-(carbonylbis(azanediyl))bis(benzoyl))bis(azanediyl))bis(1-methyl-1H-pyrrole-2,2'-carbonyl))bis(azanediyl))bis(4,1-phenylene))diacetic acid] it is 1000 to 20000 nM.
